Source: the NIST ThermoML archive (doi:10.1021/je060271a)
Several values for one entry are separate records, joined by “and”; a condition that tells them apart may be missing. Equal entries are not always repeated.

Conditions: 343.16 K, Liquid, Vibrating tube method

CCCCCC(=O)OCC(COC(=O)CCCCC)(COC(=O)CCCCC)COC(=O)CCCCC [pentaerythritol tetrahexanoate]
Conditions | mass density
251.1 kPa | 957.3 kg/m3 and 957.2 kg/m3
254 kPa | 957.3 kg/m3 and 957.1 kg/m3
254.2 kPa | 957.2 kg/m3
254.4 kPa | 957.3 kg/m3
254.5 kPa | 957.3 kg/m3
255.8 kPa | 957.3 kg/m3
255.9 kPa | 957.3 kg/m3
256.3 kPa | 957.3 kg/m3
258.5 kPa | 957.2 kg/m3
258.7 kPa | 957.2 kg/m3
258.9 kPa | 957.3 kg/m3
259.1 kPa | 957.2 kg/m3
260.1 kPa | 957.2 kg/m3 and 957.3 kg/m3
263.7 kPa | 957.2 kg/m3
264.3 kPa | 957.3 kg/m3
264.6 kPa | 957.3 kg/m3
264.8 kPa | 957.2 kg/m3
265 kPa | 957.2 kg/m3
265.1 kPa | 957.3 kg/m3
265.5 kPa | 957.2 kg/m3
265.7 kPa | 957.3 kg/m3
266 kPa | 957.2 kg/m3
266.2 kPa | 957.3 kg/m3 and 957.2 kg/m3
266.5 kPa | 957.3 kg/m3
266.7 kPa | 957.3 kg/m3
267 kPa | 957.3 kg/m3
267.2 kPa | 957.4 kg/m3
267.6 kPa | 957.2 kg/m3
267.7 kPa | 957.3 kg/m3 and 957.4 kg/m3
268.3 kPa | 957.4 kg/m3
268.4 kPa | 957.2 kg/m3 and 957.3 kg/m3
268.6 kPa | 957.3 kg/m3
269.1 kPa | 957.2 kg/m3 and 957.3 kg/m3
269.5 kPa | 957.3 kg/m3
269.8 kPa | 957.2 kg/m3
270.2 kPa | 957.3 kg/m3
270.3 kPa | 957.3 kg/m3
270.5 kPa | 957.3 kg/m3
271.4 kPa | 957.4 kg/m3
271.6 kPa | 957.2 kg/m3 and 957.3 kg/m3
271.7 kPa | 957.4 kg/m3
272.1 kPa | 957.2 kg/m3 and 957.3 kg/m3
272.3 kPa | 957.3 kg/m3
272.6 kPa | 957.3 kg/m3
273 kPa | 957.3 kg/m3
273.3 kPa | 957.3 kg/m3
274.7 kPa | 957.1 kg/m3
274.9 kPa | 957.4 kg/m3
275 kPa | 957.2 kg/m3
276.9 kPa | 957.4 kg/m3
279.9 kPa | 957.2 kg/m3
280.2 kPa | 957.4 kg/m3
280.4 kPa | 957.3 kg/m3 and 957.4 kg/m3
280.6 kPa | 957.3 kg/m3
280.9 kPa | 957.2 kg/m3 and 957.3 kg/m3
281.3 kPa | 957.3 kg/m3
281.5 kPa | 957.3 kg/m3
281.8 kPa | 957.2 kg/m3 and 957.4 kg/m3
282.3 kPa | 957.4 kg/m3
282.7 kPa | 957.4 kg/m3
282.9 kPa | 957.3 kg/m3
283 kPa | 957.3 kg/m3
283.4 kPa | 957.3 kg/m3
283.9 kPa | 957.2 kg/m3
284.2 kPa | 957.3 kg/m3
284.4 kPa | 957.3 kg/m3
284.7 kPa | 957.3 kg/m3
284.8 kPa | 957.3 kg/m3
285.4 kPa | 957.3 kg/m3
290.3 kPa | 957.4 kg/m3
290.5 kPa | 957.3 kg/m3 and 957.4 kg/m3
290.7 kPa | 957.4 kg/m3
293.8 kPa | 957.1 kg/m3
294 kPa | 957.4 kg/m3
294.3 kPa | 957.2 kg/m3
294.7 kPa | 957.2 kg/m3
294.8 kPa | 957.2 kg/m3
295.2 kPa | 957.2 kg/m3
295.5 kPa | 957.3 kg/m3
295.9 kPa | 957.3 kg/m3
296.4 kPa | 957.2 kg/m3
299.9 kPa | 957.4 kg/m3 and 957.3 kg/m3
300 kPa | 957.4 kg/m3
300.2 kPa | 957.4 kg/m3
300.6 kPa | 957.2 kg/m3
300.7 kPa | 957.3 kg/m3
300.9 kPa | 957.2 kg/m3
301.1 kPa | 957.2 kg/m3
301.3 kPa | 957.3 kg/m3
301.6 kPa | 957.4 kg/m3 and 957.3 kg/m3
302.1 kPa | 957.3 kg/m3 and 957.4 kg/m3
302.5 kPa | 957.2 kg/m3
302.7 kPa | 957.3 kg/m3
303 kPa | 957.3 kg/m3
303.2 kPa | 957.2 kg/m3
304.2 kPa | 957.3 kg/m3
304.6 kPa | 957.2 kg/m3
304.7 kPa | 957.4 kg/m3
305.1 kPa | 957.2 kg/m3
305.4 kPa | 957.4 kg/m3
307.2 kPa | 957.3 kg/m3
310.1 kPa | 957.3 kg/m3
310.3 kPa | 957.4 kg/m3
310.5 kPa | 957.3 kg/m3
310.6 kPa | 957.4 kg/m3
312.2 kPa | 957.3 kg/m3
312.6 kPa | 957.2 kg/m3
313.1 kPa | 957.4 kg/m3
313.6 kPa | 957.4 kg/m3
313.9 kPa | 957.4 kg/m3
314.3 kPa | 957.4 kg/m3
314.5 kPa | 957.4 kg/m3
314.6 kPa | 957.2 kg/m3
314.8 kPa | 957.4 kg/m3
315.3 kPa | 957.3 kg/m3
315.5 kPa | 957.4 kg/m3
317.1 kPa | 957.4 kg/m3
317.4 kPa | 957.3 kg/m3
318.1 kPa | 957.3 kg/m3
321.6 kPa | 957.4 kg/m3
322.1 kPa | 957.4 kg/m3
325.6 kPa | 957.3 kg/m3
328.2 kPa | 957.3 kg/m3
328.7 kPa | 957.4 kg/m3
328.9 kPa | 957.3 kg/m3
329.2 kPa | 957.4 kg/m3
329.6 kPa | 957.3 kg/m3
329.9 kPa | 957.2 kg/m3
330.1 kPa | 957.4 kg/m3
330.6 kPa | 957.3 kg/m3
330.8 kPa | 957.3 kg/m3
331.3 kPa | 957.4 kg/m3
331.5 kPa | 957.4 kg/m3 and 957.3 kg/m3
332 kPa | 957.3 kg/m3
332.4 kPa | 957.3 kg/m3
332.5 kPa | 957.3 kg/m3
332.9 kPa | 957.3 kg/m3
337.1 kPa | 957.2 kg/m3
337.6 kPa | 957.4 kg/m3
337.8 kPa | 957.3 kg/m3
344.9 kPa | 957.4 kg/m3
345.2 kPa | 957.4 kg/m3 and 957.3 kg/m3
345.9 kPa | 957.4 kg/m3
346.4 kPa | 957.5 kg/m3
353.7 kPa | 957.3 kg/m3 and 957.4 kg/m3
